Among the data in patent US8618095B2 (Rigel Pharmaceuticals, Inc., priority 2010, dated 2013) are IC50 values, retold here.

The structures appear in SMILES notation. pIC50: −log10 of the molar value. Counter-ions that a name gives are not always drawn.

For the first experiment, the system named is Human mast cells (CHMC). Nature of the experiment: LD Tryptase release assay in CHMC (mast cell activation induced by FcγR cross-linking). As to conditions: Homo sapiens, Mast cell, anti-IgG stimulation, activity of tryptase released upon degranulation. The format is cell-based. A digest of the protocol: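 Mast cells derived from CD38-negative progenitors were preincubated 1 h at 37 °C with compound in HEPES-buffered saline (pH 7.4, 0.1% BSA, compound diluted in buffer with 2% MeOH/1% DMSO). Cells were then stimulated 60 min with anti-human IgG (final 1 μg/mL). Released tryptase was measured on Z-Ala-Lys-Arg-AMC (30 min, room temperature, 355/460 nm) to give the IC50.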
For the compound `C[C@@H]1CN(c2ccc(Nc3ncc(F)c(Nc4ccc5c(n4)NC(=O)C(C)(C)O5)n3)cc2)CCO1` [Compound 118, N4-(2,2-dimethyl-3,4-dihydro-3-oxo-2H-pyrido[3,2-b][1,4]oxazin-6-yl)-5-fluoro-N2-[4-((2R)-2-methylmorpholino)phenyl]-2,4-pyrimidinediamine], the pIC50 is above 7.00.
For the compound `CC1(C)Oc2ccc(Nc3nc(Nc4ccc(N5CCOCC5)c(OC(F)(F)F)c4)ncc3F)nc2NC1=O` [Compound 28, N4-(2,2-dimethyl-3,4-dihydro-3-oxo-2H-pyrido[3,2-b][1,4]oxazin-6-yl)-5-fluoro-N2-[3-trifluoromethoxy-4-morpholinophenyl]-2,4-pyrimidinediamine], the pIC50 is below 4.00.
Same read-out and setting: with `CC1(C)Oc2ccc(Nc3nc(Nc4ccc(N5CCC(F)(F)CC5)c(F)c4)ncc3F)nc2NC1=O` [Compound 30, N4-(2,2-dimethyl-3,4-dihydro-3-oxo-2H-pyrido[3,2-b][1,4]oxazin-6-yl)-5-fluoro-N2-[3-fluoro-4-(4,4-difluoro-1-piperidinyl)phenyl]-2,4-pyrimidinediamine] the figure was 4.00 to 6.00; with `CCN(CC)C1CCN(c2ccc(Nc3ncc(F)c(Nc4ccc5c(n4)NC(=O)C(C)(C)O5)n3)cc2)CC1` [Compound 88, N4-(2,2-dimethyl-3,4-dihydro-3-oxo-2H-pyrido[3,2-b][1,4]oxazin-6-yl)-5-fluoro-N2-[4-(4-(diethylamino)piperidin-1-yl)phenyl]-2,4-pyrimidinediamine], 6.30 to 7.00; with `CN(C[C@H]1CCCO1)c1ccc(Nc2ncc(F)c(Nc3ccc4c(n3)NC(=O)C(C)(C)O4)n2)cn1` [Compound 111], 6.30 to 7.00.
For the compound `[2H]C1([2H])OC([2H])([2H])C([2H])([2H])N(c2ccc(Nc3ncc(F)c(Nc4ccc5c(n4)NC(=O)CO5)n3)cc2)C1([2H])[2H]` [Compound 130, N4-(2,2-dimethyl-3,4-dihydro-3-oxo-2H-pyrido[3,2-b][1,4]oxazin-6-yl)-5-fluoro-N2-[4-(2,2,3,3,5,5,6,6-d8-morpholino)phenyl]-2,4-pyrimidinediamine], the pIC50 was above 7.00.
For `CCOC1CCN(c2ccc(Nc3ncc(F)c(Nc4ccc5c(n4)NC(=O)C(C)(C)O5)n3)cc2)CC1` [Compound 85, N4-(2,2-dimethyl-3,4-dihydro-3-oxo-2H-pyrido[3,2-b][1,4]oxazin-6-yl)-5-fluoro-N2-[4-(4-ethoxypiperidin-1-yl)phenyl]-2,4-pyrimidinediamine], the pIC50 was 6.30 to 7.00.
Consider `C[C@@H]1CN(c2ccc(Nc3ncc(F)c(Nc4ccc5c(n4)NC(=O)CO5)n3)cn2)CCO1` [Compound 6, N4-(3,4-dihydro-3-oxo-2H-pyrido[3,2-b][1,4]oxazin-6-yl)-5-fluoro-N2-[6-((2R)-2-methylmorpholino)pyridin-3-yl]-2,4-pyrimidinediamine], for which the pIC50 is above 7.00.
For the compound `CC1(C)CN(c2ccc(Nc3ncc(F)c(Nc4ccc5c(n4)NC(=O)C(C)(C)O5)n3)cn2)CCO1` [Compound 8, N4-(2,2-dimethyl-3,4-dihydro-3-oxo-2H-pyrido[3,2-b][1,4]oxazin-6-yl)-5-fluoro-N2-[6-(2,2-dimethylmorpholino)pyridin-3-yl]-2,4-pyrimidinediamine], the pIC50 is 6.30 to 7.00.
On to `CN(C[C@@H]1CCCO1)c1ccc(Nc2ncc(F)c(Nc3ccc4c(n3)NC(=O)C(C)(C)O4)n2)cn1` [Compound 109], for which the pIC50 is 6.30 to 7.00.
In the case of `CC1(C)Oc2ccc(Nc3nc(Nc4ccc(N5CCOCC5)cc4)ncc3F)nc2NC1=O` [Compound 1, N4-(2,2-dimethyl-3,4-dihydro-3-oxo-2H-pyrido[3,2-b][1,4]oxazin-6-yl)-5-fluoro-N2-(4-morpholinophenyl)-2,4-pyrimidinediamine], the pIC50 was above 7.00.
Turning to `CN(C)C[C@@H]1CN(c2ccc(Nc3ncc(F)c(Nc4ccc5c(n4)NC(=O)CO5)n3)cc2)CCO1` (racemic) [Compound 121, rac-N4-(3,4-dihydro-3-oxo-2H-pyrido[3,2-b][1,4]oxazin-6-yl)-N2-[4-((2-dimethylaminomethyl)morpholino)phenyl]-5-fluoro-2,4-pyrimidinediamine], the pIC50 was above 7.00.
On the same count and under the same terms, next, `CC1(C)Oc2ccc(Nc3nc(Nc4ccc(N5CCC(C(N)=O)C5)nc4)ncc3F)nc2NC1=O` (stereo not drawn) [Compound 70, N4-(2,2-dimethyl-3,4-dihydro-3-oxo-2H-pyrido[3,2-b][1,4]oxazin-6-yl)-5-fluoro-N2-[6-(3-(aminocarbonyl)pyrrolidin-1-yl)pyridin-3-yl]-2,4-pyrimidinediamine]: 6.00 to 6.30; `C[C@@H]1CN(c2ccc(Nc3ncc(F)c(Nc4ccc5c(n4)NC(=O)C(C)(C)O5)n3)cn2)C[C@H](C)O1` [Compound 96, rac-Cis-N4-(2,2-dimethyl-3,4-dihydro-3-oxo-2H-pyrido[3,2-b][1,4]oxazin-6-yl)-N2-[6-(2,6-dimethylmorpholino)pyridin-3-yl]-5-fluoro-2,4-pyrimidinediamine]: 6.30 to 7.00; `CCO[C@H]1CCN(c2ccc(Nc3ncc(F)c(Nc4ccc5c(n4)NC(=O)C(C)(C)O5)n3)cn2)C1` [Compound 57, N4-(2,2-dimethyl-3,4-dihydro-3-oxo-2H-pyrido[3,2-b][1,4]oxazin-6-yl)-5-fluoro-N2-1-2,4-pyrimidinediamine]: 6.30 to 7.00.
Regarding `C[C@@H]1COCCN1c1ccc(Nc2ncc(F)c(Nc3ccc4c(n3)NC(=O)CO4)n2)cn1` [Compound 51, N4-(3,4-dihydro-3-oxo-2H-pyrido[3,2-b][1,4]oxazin-6-yl)-5-fluoro-N2-[6-((3R)-3-methylmorpholino)pyridin-3-yl]-2,4-pyrimidinediamine], the pIC50 was above 7.00.
For the compound `O=C1COc2ccc(Nc3nc(Nc4ccc(N5CC[C@H](O)C5)nc4)ncc3F)nc2N1` [Compound 63, N4-(3,4-dihydro-3-oxo-2H-pyrido[3,2-b][1,4]oxazin-6-yl)-5-fluoro-N2-[6-((3S)-3-hydroxypyrrolidin-1-yl)pyridin-3-yl]-2,4-pyrimidinediamine], the pIC50 is 6.30 to 7.00.
For the compound `C[C@H]1CN(c2ccc(Nc3ncc(F)c(Nc4ccc5c(n4)NC(=O)C(C)(C)O5)n3)cn2)[C@@H](C)CO1` (racemic) [Compound 105, rac-N4-(2,2-dimethyl-3,4-dihydro-3-oxo-2H-pyrido[3,2-b][1,4]oxazin-6-yl)-5-N2-[6-(2,5-dimethylmorpholino)pyridin-3-yl]-5-fluoro-2,4-pyrimidinediamine], the pIC50 was 6.30 to 7.00.
Turning to `O=C1COc2ccc(Nc3nc(Nc4ccc(N5C[C@@H]6C[C@H]5CO6)cc4)ncc3F)nc2N1` [Compound 37, N4-(3,4-dihydro-3-oxo-2H-pyrido[3,2-b][1,4]oxazin-6-yl)-5-fluoro-N2-[4-((1S,4S)-5-oxa-2-aza-bicyclo[2.2.1]heptan-2-yl)phenyl]-2,4-pyrimidinediamine], the pIC50 is 6.30 to 7.00.
As for `O=C1COc2ccc(Nc3nc(Nc4ccc(N5CCO[C@@H](CO)C5)cc4)ncc3F)nc2N1` [Compound 127, N4-(3,4-dihydro-3-oxo-2H-pyrido[3,2-b][1,4]oxazin-6-yl)-5-fluoro-N2-[4-((2-hydroxymethyl)morpholino)phenyl]-2,4-pyrimidinediamine], the pIC50 was above 7.00.
In the case of `CCN(CC)C1CCN(c2ccc(Nc3ncc(F)c(Nc4ccc5c(n4)NC(=O)C(C)(C)O5)n3)cn2)C1` (stereo not drawn) [Compound 66, N4-(2,2-dimethyl-3,4-dihydro-3-oxo-2H-pyrido[3,2-b][1,4]oxazin-6-yl)-5-fluoro-N2-[6-(3-(diethylamino)pyrrolidin-1-yl)pyridin-3-yl]-2,4-pyrimidinediamine], the pIC50 is 6.00 to 6.30.
For `COCC1CCN(c2ccc(Nc3ncc(F)c(Nc4ccc5c(n4)NC(=O)C(C)(C)O5)n3)cc2)CC1` [Compound 155, N4-(2,2-dimethyl-3,4-dihydro-3-oxo-2H-pyrido[3,2-b][1,4]oxazin-6-yl)-5-fluoro-N2-[4-(4-(methoxymethyl)piperidin-1-yl)phenyl]-2,4-pyrimidinediamine], the pIC50 was 6.30 to 7.00.
In the case of `O=C1COc2ccc(Nc3nc(Nc4ccc(C5CCOCC5)cc4)ncc3F)nc2N1` [Compound 46, N4-(3,4-dihydro-3-oxo-2H-pyrido[3,2-b][1,4]oxazin-6-yl)-5-fluoro-N2-[4-tetrahydropyranophenyl]-2,4-pyrimidinediamine], the pIC50 is above 7.00.
Same read-out and setting: next, `CC1(C)Oc2ccc(Nc3nc(Nc4ccc(N5CCNC(=O)C5)cc4)ncc3F)nc2NC1=O` [Compound 151, N4-(2,2-dimethyl-3,4-dihydro-3-oxo-2H-pyrido[3,2-b][1,4]oxazin-6-yl)-5-fluoro-N2-[4-(3-oxopiperazin-1-yl)phenyl]-2,4-pyrimidinediamine]: 6.30 to 7.00.

Staying with this experiment, now noted: anti-IgG stimulation, activity of tryptase released upon degranulation.
As to `CC1(C)Oc2ccc(Nc3nc(Nc4ccc(N5CCOCC5)nc4)ncc3F)nc2NC1=O` [Compound 3, N4-(2,2-dimethyl-3,4-dihydro-3-oxo-2H-pyrido[3,2-b][1,4]oxazin-6-yl)-5-fluoro-N2-[6-morpholinopyridin-3-yl]-2,4-pyrimidinediamine], the pIC50 was above 7.00.
For `CC1(C)Oc2ccc(Nc3nc(Nc4ccc(N5CCOCC5)c(F)c4)ncc3F)nc2N(COP(=O)(O)O)C1=O` [Compound 113, N4-(2,2-dimethyl-3,4-dihydro-4-[(dihydrogenphosphonoxy)methyl]-3-oxo-2H-pyrido[3,2-b][1,4]oxazin-6-yl)-5-fluoro-N2-(3-fluoro-4-morpholinophenyl)-2,4-pyrimidinediamine disodium salt], the pIC50 is 4.00 to 6.00.
As to `Cc1cc(Nc2ncc(F)c(Nc3ccc4c(n3)N(COP(=O)(O)O)C(=O)C(C)(C)O4)n2)ccc1N1CCOCC1` [Compound 112, N4-(2,2-dimethyl-3,4-dihydro-4-[(dihydrogenphosphonoxy)methyl]-3-oxo-2H-pyrido[3,2-b][1,4]oxazin-6-yl)-5-fluoro-N2-(3-methyl-4-morpholinophenyl)-2,4-pyrimidinediamine disodium salt], the pIC50 was 6.00 to 6.30.

By pIC50 is commonly meant the IC50 on a negative log10 scale, so that one unit is a factor of ten.
